Data as given in publication PMC6021032, “Antimycobacterial activity of nitrogen heterocycles derivatives: 7-(pyridine-4-yl)-indolizine derivatives. Part VII^8–12” (Journal of Enzyme Inhibition and Medicinal Chemistry, 2017).
Read-outs that look alike come from different tables or passages of the source.

Columns and labels:
[1] = target: T1, CYP2C19 (Homo sapiens, UniProt P33261); experiment: Cytochrome P450 inhibition in human liver microsomes; type: in vitro ADME
T1 construct: Compounds were incubated with human liver; from tissue; host or cells: human liver microsomes

[2] = target: T2, CYP2C9 (Homo sapiens, UniProt P11712); experiment: as above; type: in vitro ADME
T2 construct: Compounds were incubated with human liver; from tissue; host or cells: human liver microsomes

[3] = tested on: M. tuberculosis H37Rv; experiment: Cycle 2 repeat of MIC, IC50, IC90 under aerobic conditions (lower starting concentrations); type: cell-based, Mycobacterium tuberculosis; conditions: Mycobacterium tuberculosis, revaluation
[4] = Cytotoxicity, THP-1 cell viability (CellTiter-Glo); conditions: human
[5] = Caco-2 permeability assay; conditions: human, Caco-2
Description: The Caco-2 cell layer permeability assay is widely used as a more predictive in vitro model of absorption through the intestinal epithelium. […] For B–A permeability, test compound was added to the basal side of the Caco-2 monolayer and the transport of the compound to the apical side monitored. The amount of compound present in each compartment was quantified by LC-MS/MS.
recovered and analyzed by LC-MS/MS.
3.2. Caco-2 Permeability Assay
feeding at 2-day intervals.
Each experiment included the
contained transport buffer at pH 7.4.
3.3. Cytochrome P450 Inhibition Assay
and was < 0.2%. Samples were run in duplicate. Compounds were incubated with human liver

[6] = Plasma protein binding by equilibrium dialysis
[7] = target: T3, CYP3A4 (Homo sapiens, UniProt P08684); experiment: Cytochrome P450 inhibition in human liver microsomes; type: in vitro ADME
T3 construct: Compounds were incubated with human liver; from tissue; host or cells: human liver microsomes
T3 sequence (P08684 whole entry): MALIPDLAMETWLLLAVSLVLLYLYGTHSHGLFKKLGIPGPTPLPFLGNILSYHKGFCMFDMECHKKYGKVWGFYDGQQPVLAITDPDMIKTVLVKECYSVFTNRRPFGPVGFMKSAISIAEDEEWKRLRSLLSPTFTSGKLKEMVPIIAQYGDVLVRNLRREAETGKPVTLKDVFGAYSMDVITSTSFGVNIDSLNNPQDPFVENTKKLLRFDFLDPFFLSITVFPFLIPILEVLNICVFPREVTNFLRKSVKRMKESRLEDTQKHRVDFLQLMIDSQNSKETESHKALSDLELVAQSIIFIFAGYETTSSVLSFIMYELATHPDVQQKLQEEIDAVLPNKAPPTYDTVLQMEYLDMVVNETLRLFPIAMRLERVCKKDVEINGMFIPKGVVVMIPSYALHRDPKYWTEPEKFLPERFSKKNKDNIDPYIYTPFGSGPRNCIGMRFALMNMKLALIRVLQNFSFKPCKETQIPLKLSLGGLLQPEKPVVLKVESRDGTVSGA

T1 sequence (P33261 whole entry): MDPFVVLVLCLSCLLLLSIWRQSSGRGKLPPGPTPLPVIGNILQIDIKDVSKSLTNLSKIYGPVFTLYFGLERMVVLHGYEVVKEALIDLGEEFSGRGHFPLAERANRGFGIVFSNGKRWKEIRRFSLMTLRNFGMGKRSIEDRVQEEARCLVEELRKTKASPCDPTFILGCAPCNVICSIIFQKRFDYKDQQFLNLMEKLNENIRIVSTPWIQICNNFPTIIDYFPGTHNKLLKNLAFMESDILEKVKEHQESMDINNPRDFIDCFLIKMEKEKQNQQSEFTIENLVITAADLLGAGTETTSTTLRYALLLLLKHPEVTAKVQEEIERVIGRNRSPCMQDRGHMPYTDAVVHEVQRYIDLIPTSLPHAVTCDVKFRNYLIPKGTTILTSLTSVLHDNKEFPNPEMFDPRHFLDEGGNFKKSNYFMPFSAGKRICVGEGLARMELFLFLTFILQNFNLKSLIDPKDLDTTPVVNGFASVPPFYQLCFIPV
T2 sequence (P11712 whole entry): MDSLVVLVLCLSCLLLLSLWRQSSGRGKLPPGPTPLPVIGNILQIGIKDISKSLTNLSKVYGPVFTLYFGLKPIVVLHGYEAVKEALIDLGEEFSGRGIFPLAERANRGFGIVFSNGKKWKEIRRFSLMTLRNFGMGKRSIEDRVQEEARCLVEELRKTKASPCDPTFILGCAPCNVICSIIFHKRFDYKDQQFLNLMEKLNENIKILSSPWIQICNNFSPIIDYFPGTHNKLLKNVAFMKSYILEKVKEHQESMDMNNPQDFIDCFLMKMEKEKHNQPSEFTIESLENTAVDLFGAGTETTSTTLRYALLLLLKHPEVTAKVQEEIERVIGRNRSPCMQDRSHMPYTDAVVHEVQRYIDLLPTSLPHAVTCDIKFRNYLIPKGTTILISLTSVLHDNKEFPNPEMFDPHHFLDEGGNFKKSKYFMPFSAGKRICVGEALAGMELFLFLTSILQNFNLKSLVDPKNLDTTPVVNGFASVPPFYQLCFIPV

In the case of `CCOC(=O)c1cc(C(=O)c2ccc(Cl)cc2)n2ccc(-c3cc[n+](CC(=O)c4ccc(C)cc4)cc3)cc12` [Compound 6i], the IC50 [1] is reported as over 5 µM, the IC50 [2] is reported as over 5 µM and the IC50 ([3]; aerobic) is reported as 9.8 µM. It also gave an IC90 ([3]; aerobic) of 17 µM, an MIC ([3]; repeated at lower starting concentrations, read-out: MIC aerobic condition) of 16 µM and an IC50 at 3 days [4] of 3.8 µM. The Papp B→A [5] was 1.3 ×10⁻⁶ cm/s, the efflux ratio [5] was 1.7 and the “Mean plasma fraction bound” value ([6]; Human plasma, 5 µM, 4 h at 37 °C) was “strongly bound”. The fraction unbound at 4 h, 5 µM ([6]; human, human plasma, 5 µM, 4 h at 37 °C) was 0.003, the fraction unbound at 4 h, 5 µM ([6]; human, human plasma, Mean plasma fraction unbound, 5 µM, 4 h at 37 °C) was 0.0035 and the recovery at 4 h, 5 µM ([6]; human, human plasma, dialysed against PBS in a RED device) was 48.7%. The “IC50 CYP3A4-Midazolam” value ([7]; probe substrate midazolam) was “moderate inhibition”, the IC50 ([7]; probe substrate midazolam, read-out: IC50 CYP3A4-Midazolam) was 480 nM and the “IC50 CYP3A4-Testosterone” value ([7]; probe substrate testosterone) was “high inhibition”. The IC50 ([7]; probe substrate testosterone, read-out: IC50 CYP3A4-Testosterone) was 81 nM.
